From PMC8838411, “Disrupting the MAD2L2-Rev1 Complex Enhances Cell Death upon DNA Damage” (Molecules, 2022) come the findings set out here.

In test [1] the target is T1, GST-MAD2L2 (Homo sapiens, UniProt Q9UI95).
T1 construct: GST fusion, expressed in E. coli BL21 Star, standard GST purification, amine-immobilised on graphene chip
In words: field-effect biosensing (FEB, Agile R100), immobilised protein. Format: binding. Conditions: PBS; compound 1-50 μM; Hill fit or kon/koff.

Test [2] deals with T2, MAD2L2-Rev1 complex (myc-MAD2L2 and YFP-Rev1) (Homo sapiens, UniProt Q9UI95).
T2 construct: stoichiometry from the docking model; with DNA repair protein REV1
Nature of the test: co-immunoprecipitation (GFP-Trap), immunoblot. Format: cell-based. The conditions noted are these: HEK293 cells, 50 μM compound, 24 h.

Test [3] concerns the target T1, GST-MAD2L2. In words: field-effect biosensing (FEB, Agile R100), immobilised protein. Conditions: PBS; compound 1-50 μM; Hill fit or kon/koff; unreliable. Format: binding.

T1 sequence (Q9UI95 whole entry, the tested form may be a part): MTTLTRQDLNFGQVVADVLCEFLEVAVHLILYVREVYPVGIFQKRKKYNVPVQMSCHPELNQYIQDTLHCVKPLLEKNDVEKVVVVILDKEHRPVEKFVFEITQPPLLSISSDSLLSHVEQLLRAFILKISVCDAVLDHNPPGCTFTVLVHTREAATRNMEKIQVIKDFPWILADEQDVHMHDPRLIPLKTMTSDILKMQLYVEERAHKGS
T2 sequence (Q9UI95 whole entry): as the sequence (Q9UI95 whole entry, the tested form may be a part) above
T2 sequence (Q9UBZ9 whole entry partner): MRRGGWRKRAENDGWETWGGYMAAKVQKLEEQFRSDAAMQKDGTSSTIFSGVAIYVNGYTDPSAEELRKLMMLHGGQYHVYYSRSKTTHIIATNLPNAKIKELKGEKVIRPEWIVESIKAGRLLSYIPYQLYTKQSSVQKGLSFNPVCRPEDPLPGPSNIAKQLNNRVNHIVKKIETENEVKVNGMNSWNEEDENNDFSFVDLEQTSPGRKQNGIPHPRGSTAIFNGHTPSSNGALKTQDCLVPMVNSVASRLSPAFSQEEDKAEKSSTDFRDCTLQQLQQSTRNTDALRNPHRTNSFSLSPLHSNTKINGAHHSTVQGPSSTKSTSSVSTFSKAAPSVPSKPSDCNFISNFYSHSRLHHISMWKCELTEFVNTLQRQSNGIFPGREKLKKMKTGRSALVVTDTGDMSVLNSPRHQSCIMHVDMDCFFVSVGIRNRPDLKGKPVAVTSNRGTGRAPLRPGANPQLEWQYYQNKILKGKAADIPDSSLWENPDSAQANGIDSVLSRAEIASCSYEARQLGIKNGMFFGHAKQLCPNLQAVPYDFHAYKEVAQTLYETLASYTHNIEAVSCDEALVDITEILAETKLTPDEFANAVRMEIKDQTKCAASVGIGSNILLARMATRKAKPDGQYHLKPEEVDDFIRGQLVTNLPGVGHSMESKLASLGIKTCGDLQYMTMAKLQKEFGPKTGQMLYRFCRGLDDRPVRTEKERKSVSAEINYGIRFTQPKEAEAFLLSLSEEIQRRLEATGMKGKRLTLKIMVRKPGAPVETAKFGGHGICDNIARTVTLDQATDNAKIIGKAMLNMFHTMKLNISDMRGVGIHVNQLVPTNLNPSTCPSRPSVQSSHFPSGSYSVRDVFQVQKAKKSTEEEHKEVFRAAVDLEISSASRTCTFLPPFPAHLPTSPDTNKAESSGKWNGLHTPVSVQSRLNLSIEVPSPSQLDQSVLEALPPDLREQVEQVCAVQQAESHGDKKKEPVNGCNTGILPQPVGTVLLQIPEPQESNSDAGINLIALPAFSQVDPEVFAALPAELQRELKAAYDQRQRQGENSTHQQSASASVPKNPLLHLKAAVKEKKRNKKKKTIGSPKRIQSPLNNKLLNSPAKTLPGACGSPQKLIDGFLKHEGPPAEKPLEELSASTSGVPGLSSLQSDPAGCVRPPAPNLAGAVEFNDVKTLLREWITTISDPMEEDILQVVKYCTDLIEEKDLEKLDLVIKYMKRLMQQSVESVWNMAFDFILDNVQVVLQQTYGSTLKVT

As for ZINC25496030 [c#3], on GST-MAD2L2 [1], binding was put at a Kd of 44.9 ± 2.06 µM. For the same substance, the “% reduction of MAD2L2-Rev1 binding at 50 μM” value in test [2] is given as ~ 80%. Substance ZINC97017995 [c#2] gave a kD at GST-MAD2L2 [3] of 310.8 ± 32.96 µM.

The term Kd denotes the equilibrium constant for the complex coming apart. Read a high Kd as lower affinity.
